Experiment: xn = mol fraction of the nth substance listed, in the solute-free solvent

CN1CCN(C(=O)OC2c3nccnc3C(=O)N2c2ccc(Cl)cn2)CC1 (configuration not stated) + CCO + O
solubility (g/100 g solution)
Conditions | x2 = 0.3 | x2 = 0.4 | x2 = 0.5 | x2 = 0.6 | x2 = 0.7 | x2 = 0.8 | x2 = 0.9
288.15 K | 0.129 | 0.242 | 0.377 | 0.527 | 0.59 | 0.511 | 0.375
298.15 K | 0.208 | 0.397 | 0.63 | 0.85 | 0.998 | 0.9 | 0.647
308.15 K | 0.296 | 0.666 | 1.02 | 1.32 | 1.43 | 1.3 | 0.911
318.15 K | 0.474 | 0.988 | 1.51 | 2.03 | 2.31 | 2.12 | 1.53
328.15 K | 0.818 | 1.65 | 2.51 | 3.27 | 3.65 | 3.31 | 2.53

O=C(CC(=O)c1ccccc1)c1ccccc1 + CO + O
solubility (g/100 g solution)
Conditions | 278.15 K | 283.15 K | 288.15 K | 293.15 K | 298.15 K | 303.15 K | 308.15 K | 313.15 K | 318.15 K
x2 = 0.2 | 0.0215 | 0.0248 | 0.0305 | 0.0358 | 0.0488 | 0.0621 | 0.0667 | 0.0775 | 0.0881
x2 = 0.4 | 0.0257 | 0.0323 | 0.039 | 0.0541 | 0.0826 | 0.13 | 0.162 | 0.236 | 0.322
x2 = 0.6 | 0.165 | 0.351 | 0.562 | 0.643 | 0.783 | 0.822 | 0.987 | 1.02 | 1.05
x2 = 0.8 | 0.491 | 0.788 | 1.01 | 1.11 | 1.35 | 1.7 | 1.98 | 2.52 | 2.72

O=c1[nH]cc(F)c(=O)[nH]1 + CCCO + C1CCOC1
solubility (g/100 g solution)
Conditions | 283.15 K | 288.15 K | 293.15 K | 298.15 K | 303.15 K | 308.15 K | 313.15 K | 318.15 K | 323.15 K
x2 = 0.2307 | 0.148 | 0.169 | 0.195 | 0.226 | 0.263 | 0.313 | 0.373 | 0.452 | 0.536
x2 = 0.4444 | 0.17 | 0.196 | 0.225 | 0.258 | 0.299 | 0.351 | 0.42 | 0.496 | 0.588
x2 = 0.6428 | 0.201 | 0.229 | 0.258 | 0.297 | 0.34 | 0.397 | 0.467 | 0.543 | 0.625
x2 = 0.8276 | 0.228 | 0.263 | 0.298 | 0.34 | 0.393 | 0.457 | 0.539 | 0.651 | 0.763
